Reference: patent US20130072459A1, “PHARMACEUTICAL COMPOSITION FOR THE PREVENTION OR THE TREATMENT OF NON-ALCOHOLIC FATTY LIVER DISEASE AND THE METHOD FOR PREVENTION OR TREATMENT OF NON-ALCOHOLIC FATTY LIVER DISEASE USING THE SAME” (priority 2010, published 2013)

What was measured:
[1] = tested on: high fat diet-induced simple steatosis; test: Non-alcoholic fatty liver-preventing effects on high fat diet-induced simple steatosis in mice (oral, 28 days); assay type: in vivo, C57BL/6 mice; details: for Triglyceride increase inhibition (%) relative to high fat diet-fed group / Triglyceride increment (%) relative to standard diet-fed group: 28 days, high fat diet; for lipid droplets in liver tissue sample (histological evaluation), result in words: HE staining, FIG. 8; for maximum decrement of the hepatic triglyceride content relative to the high fat diet-fed group: maximum over the doses tested
Description: 7-week old male C57BL/6 mice were stabilized and then divided into 9 groups (n=9) according to the body weight and blood glucose level. A standard diet-fed group and a high fat diet-fed group were orally administered a vehicle solution (0.5% MC (methylene cellulose)) of each diet once a day at a dose of 10 ml/kg, and the remaining groups were orally given once a day for 28 days a high fat diet in conjunction with tartrate of Compound 1 at doses of 30, 100 and 300 mg/kg, sitagliptin phosphate at doses of 100 and 300 mg/kg, and vildagliptin at doses of 100 mg/kg and 300 mg/kg, respectively, according to the designated groups. 24 hours after the final oral administration, animals were dissected and the excised liver was homogenized in a 5(v/v) % Triton-X solution to which a triglyceride working reagent was then added, followed by measurement of an absorbance at 540 nm to determine the content of triglyceride (Table 2). In addition, a portion of the excised liver was fixed in a 10(v/v) % formalin solution and then a tissue sample was prepared, followed by hematoxylin & eosin(HE) staining and photographing (FIG. 8).

[2] = tested on: high fat diet-induced simple steatosis; test: Preventive effects on high fat diet-induced simple steatosis in mice (drug-mixed diet, 8/16/24 weeks); assay type: in vivo, C57BL/6 mice; details: for serum alanine aminotransferase (ALT), result in words: at 16 weeks and 24 weeks; for serum alanine aminotransferase (ALT), result in words / hepatic triglyceride content, result in words: vs high fat diet-fed group; for hepatic triglyceride content, result in words: hepatic triglyceride analysis and histological analysis
Description: 6-week old male C57BL/6 mice were stabilized and then divided into 5 groups. One group was given a standard diet containing 10% fat (trade name: D12450B, manufactured by Research Diets), and one group was given a high fat diet containing 60% fat (trade name: D12492, manufactured by Research Diets). Remaining 3 groups as drug-treated groups were given a drug-mixed diet specially formulated by mixing a high fat diet and a drug. With regard to tartrate of Compound 1, in order to supply 100 mg/kg and 300 mg/kg which are daily target doses of tartrate of Compound 1 based on the daily average high fat diet consumption amount, diets were formulated by mixing a high fat diet and 0.2% by weight and 0.5% by weight of tartrate of Compound 1, respectively. With regard to sitagliptin phosphate, in order to supply 300 mg/kg which is a daily target dose based on the daily average high fat diet consumption amount, a diet was formulated by mixing a high fat diet and about 0.5% by weight of sitagliptin phosphate. Individual drug-treated groups were given the drug-mixed diets thus formulated. 8 weeks, 16 weeks, and 24 weeks after a supply of each diet, animals were dissected and sera were separated. Then, serum ALT levels (alanine aminotransferase, GPT, glutamic pyruvate transaminase) were measured using a blood analyzer (Table 1 and FIG. 1). The excised liver was homogenized in a 5(v/v) % Triton-X solution, and a triglyceride working reagent [which was prepared by mixing a free glycerol reagent (F6428, Sigma) and a triglyceride reagent (T2449, Sigma) in a ratio of 4:1(v/v)] was added thereto, followed by measurement of an absorbance at 540 nm to determine the content of triglyceride (Table 1 and FIG. 2). In addition, in order to observe histological fat distribution, a portion of the excised liver was fixed in a 10(v/v) % formalin solution and then a tissue sample was prepared, followed by hematoxylin & eosin staining and photographing using an image analysis program (computerized image analysis) (FIG. 3, the violet-stained portion represents a normal liver tissue, and white-stained portion represents lipid droplets).

[3] = tested on: activated hepatic stellate cells; test: Expression of activity indicator proteins (TGFβ1, α-SMA) in activated hepatic stellate cells, Western blot; assay type: cell-based, rat (Wistar); details: for 1 ng/mL TGFβ1-induced protein expression inhibition rate, TGFβ1 / 1 ng/mL TGFβ1-induced protein expression inhibition rate, α-SMA: 100 μM compound, 7 days, N = 3, corrected by β-actin; for protein expression levels of TGFβ1 and α-SMA, result in words: hTGF-β1-activated rat hepatic stellate cells
Description: An inhibitory action of the compounds of the present invention on the activation of hepatic stellate cells was tested according to the following cell culture method. Male rats (Wistar rats), weighing 500 to 700 g, were anesthetized, followed by an abdominal incision, and cannulae were connected to hepatic portal veins, followed by sequential perfusion with a Hank's Balanced Salt Solution (HBSS) containing heparin and an HBSS containing type 1 collagenase. After the perfusion was complete, the liver was excised, ground with surgical scissors, and added to an HBSS containing type 1 collagenase, followed by shaking culture at 37° C. for 15 minutes. The completely ground liquid-state liver tissue was passed through gauze and centrifuged at 500 g for 10 minutes. The resulting mingled cell precipitate was washed with a phosphate buffer, followed by centrifugation at 100 g for 5 minutes, and the supernatant was collected. The supernatant was further centrifuged at 500 g for 10 minutes to obtain a precipitate to which a 9:1 (v/v) mixture of a Ficoll liquid (GE Healthcare) and a Percoll liquid (GE Healthcare) was added, followed by mixing. A phosphate buffer was gently placed on the mixed layer, followed by centrifugation at 1,400 g for 15 minutes. Then, the cell layer formed between the upper layer and the lower layer was recovered and washed once with a Dulbecco's Modified Eagle Medium (DMEM) containing 10(v/v) % fetal bovine serum. The resulting cells were added at a cell density of 3.1×10^5 cells/cm^2, the medium was exchanged with a fresh medium after 24 hours, and cultured for 7 days with exchange of the medium at intervals of 2 to 3 days. Then, the drugs were treated at specified concentrations in a medium containing 1 ng/ml of a human transforming growth factor (TGF) β1 and a medium containing no TGF β1. TGF β1 was dissolved in dimethylsulfoxide (DMSO) to a concentration 1.000-fold higher than the desired treatment concentration of the drug, 1.000-fold diluted in a medium to be a 1-fold (1×) volume, and then treated on cells. After 7 days of the drug treatment, the medium was harvested and washed with a phosphate buffer. A buffer containing a surfactant was added thereto and the cells were lysed. Then, proteins were quantified, electrophoresed on a 4-12% Bis-Tris gel (Invitrogen), and transferred to a nitrocellulose membrane. The transferred proteins were reacted with primary antibodies specific for α-smooth muscle actin (α-SMA) or TGFβ1, and then reacted with horse radish peroxidase-conjugated specific secondary antibodies. The expression level of the target protein was confirmed using a chemiluminescent liquid and corrected in terms of actin (β-actin) expression level (FIG. 9). The decrement of observed protein expression by 100 μM of individual compounds of the present invention was expressed as a percentage drug-induced decrement, based an increment of protein expression in the TGFβ1-treated positive control group relative to the negative control group to which only DMSO was added (Table 3).

[4] = 8 weeks, high fat diet + 0.5% drug (target 300 mg/kg/day)
[5] = 16 weeks, high fat diet + 0.5% drug (target 300 mg/kg/day)
[6] = 24 weeks, high fat diet + 0.5% drug (target 300 mg/kg/day)
[7] = 8 weeks, high fat diet + 0.2% drug (target 100 mg/kg/day)
[8] = 16 weeks, high fat diet + 0.2% drug (target 100 mg/kg/day)
[9] = 24 weeks, high fat diet + 0.2% drug (target 100 mg/kg/day)

SMILES | Triglyceride increase inhibition (%) relative to high fat diet-fed group ([1]; 100 mg/kg oral once a day) [%] | Triglyceride increment (%) relative to standard diet-fed group ([1]; 100 mg/kg oral once a day) [%] | Triglyceride increase inhibition (%) relative to high fat diet-fed group ([1]; 300 mg/kg oral once a day) [%] | Triglyceride increment (%) relative to standard diet-fed group ([1]; 300 mg/kg oral once a day) [%] | lipid droplets in liver tissue sample (histological evaluation), result in words [1] | maximum decrement of the hepatic triglyceride content relative to the high fat diet-fed group [1] [%] | Hepatic TG [2, 4] [mg/g wet liver] | Plasma ALT [2, 4] [U/L] | Hepatic TG [2, 5] [mg/g wet liver] | Plasma ALT [2, 5] [U/L] | Hepatic TG [2, 6] [mg/g wet liver] | Plasma ALT [2, 6] [U/L] | serum alanine aminotransferase (ALT), result in words [2] | hepatic triglyceride content, result in words [2] | 1 ng/mL TGFβ1-induced protein expression inhibition rate, TGFβ1 [3] [%] | 1 ng/mL TGFβ1-induced protein expression inhibition rate, α-SMA [3] [%] | protein expression levels of TGFβ1 and α-SMA, result in words [3] | also measured
N[C@@H](CC(=O)N1CCn2c(nnc2C(F)(F)F)C1)Cc1cc(F)c(F)cc1F [sitagliptin phosphate, sitagliptin] | 61 | 21 | 15 | 45 | reduction of lipid droplets | 61 | 11.8 ± 2.7 | 26.5 ± 1.8 | 10.0 ± 1.2 | 22.2 ± 1.3 | 36.8 ± 6.6 | 27.0 ± 1.7 | significant decreases | significant decrease | −6 ± 51.9 | 46 ± 7.3 | lowered | 
CC(C)(C)OC[C@@H]1C(=O)NCCN1C(=O)C[C@H](N)Cc1cc(F)c(F)cc1F [tartrate of Compound 1, (R)-4-[(R)-3-amino-4-(2,4,5-trifluorophenyl)-butanoyl]-3-(t-butoxymethyl)piperazin-2-one] | 12 | 47 | 81 | 11 | reduction of lipid droplets | 81 | 7.4 ± 2.0 | 39.3 ± 3.6 | 15.8 ± 2.0 | 27.5 ± 1.5 | 15.1 ± 3.5 | 43.8 ± 4.3 | significant decreases | significant decrease | 78 ± 17.2 | 25 ± 1.9 | lowered | Triglyceride increase inhibition (%) relative to high fat diet-fed group ([1]; 30 mg/kg oral once a day): 34%; Triglyceride increment (%) relative to standard diet-fed group ([1]; 30 mg/kg oral once a day): 35%; Hepatic TG [2, 7]: 15.5 ± 2.0 mg/g wet liver; Plasma ALT [2, 7]: 20.6 ± 0.9 U/L; Hepatic TG [2, 8]: 21.5 ± 0.7 mg/g wet liver; Plasma ALT [2, 8]: 20.5 ± 1.2 U/L; Hepatic TG [2, 9]: 38.2 ± 5.8 mg/g wet liver; Plasma ALT [2, 9]: 37.5 ± 4.2 U/L; concentration dependence of protein expression decrement of TGFβ1 and α-SMA, result in words ([3]; FIG. 9): increased with a higher concentration
